IC50 data for one compound are collected here from US8901118B2, “Compounds and methods for kinase modulation, and indications therefor” (Plexxikon Inc., priority 2010, dated 2014).

This experiment deals with MV-4-11 cells. Kind of experiment: MV-4-11 (leukemia) cell proliferation assay (ATPlite). The class given is cell-based. To be noted: Homo sapiens, MV4-11, read-out: Inhibition of Cell Proliferation IC50, MV-4-11. As to the method: Compounds are assessed in a variety of cell based assays. For example BaF3 cells engineered with any of BCR-FMS, BCR-KIT, BCR-FLT3, BCR-NTRK1, BCR-NTRK2, and BCR-NTRK3, are used in cell proliferation assays to assess inhibitory activity of Fms, Kit, Flt-3, TrkA, TrkB, and TrkC, respectively. An MV-4-11 (leukemia) cell proliferation assay is used to assess inhibitory activity in Flt-3, and SKNSH (human neuroblastoma) cell proliferation assay is used to assess efficacy of Fms/Trk inhibitors. Additional cells may be assayed similarly to assess the efficacy of Fms/Trk inhibitors, such as MiaPaCa (human pancreatic cancer) and Capan-1 (human pancreatic carcinoma) cells. Reagent and assay conditions are as follows: • BaF3 cells: • Maintained in RPMI containing 10% FBS, 1% PenStrep, 1% NEAA, and 1% L-Glutamine, supplemented with 1 mg/mL G418 and 5% WEHI-CM (or recombinant murine IL-3). • Confluent cells are split 1:50 to 1:100 every 3-4 days. • MV-4-11 cells: • Maintained in Iscove's Modified Dulbecco's Medium containing 10% FBS. • Confluent cells are split 1:4 every 3-4 days. • SKNSH cells: RPMI containing 10% FBS. On day 1, cells are counted, then centrifuged in a conical tube for 5 minutes at 1000 rpm. The supernatant is removed and cells are re-suspended as follows: • BaF3: resuspend in growth media +1 mg/mL G418 (without WEHFIL-3) to 2×10^5 cells/mL. • MV-4-11: resuspend in growth media to 5×10^5 cells/mL. • SKNSH: resuspend in growth media to 2×10^4 cells/mL. The cells are plated (50 μL, 150 μL for SKNSH cells) in each well of a 96-well dish (Corning 3610) and incubated at 37° C. in 5% CO2 overnight, cells plated to a final concentration of cells as follows: • BaF3: 10,000 cells per well. • MV-4-11: 25,000 cells per well. • SKNSH: 3,000 cells per well. On day 2, compound at a maximum concentration of 5 mM is serially diluted 1:3 for a total of 8 point titration with DMSO as a control. A 1 μL aliquot of each dilution point is added to 249 μL growth media and 50 μL is added to a well containing cells, providing 10 μM compound for the maximum concentration point. The cells are incubated for 3 days at 37° C. in 5% CO2. For SKNSH cells, a 0.75 μL aliquot of appropriate dilution in DMSO is added to 150 μL of cells. On day 5, ATPlite 1 step Luminescence Assay System (Perkin Elmer #6016739) is brought to room temperature along with the cell cultures. ATPlite is added to each well as follows: • BaF3: 25 μL per well. • MV-4-11: 40 μL per well. • SKNSH: 20 μL per well. The cells are incubated at room temperature for 10 minutes, then luminescence is read on Safire reader. The measured luminescence correlates directly with cell number, such that the reading as a function of compound concentration is used to determine the IC50 value.
It is understood that the results of these assays may vary as assay conditions are varied. Inhibition levels determined under the conditions described herein represent a relative activity for the compounds tested under the specific conditions employed. The cell based assays are likely to show variability due to the complexity of the system and the sensitivity thereof to any changes in the assay conditions. […] Results for compounds that are tested and show substantially no inhibition below the highest tested concentration are represented as “-” in the tables below. In some instances, the compounds were not tested in all of the assays, or assay results were not valid, as indicated by NA in the tables below.
(In general: Cellular ATP, detected with luciferase, serves as a proxy for viable cell number.)

Structures are written as SMILES.

For the compound `Fc1nc(NC2CCC(F)(F)CC2)ccc1Cc1c[nH]c2ncc(Cl)cc12` [Compound P-3013, [5-(5-Chloro-1H-pyrrolo[2,3-b]pyridin-3-ylmethyl)-6-fluoro-pyridin-2-yl]-(4,4-difluoro-cyclohexyl)-amine], the IC50 is less than 10 µM.
